Values joined by “and” are separate entries in the source; they are usually repeats but may differ in a detail not shown here. Equal values may be shown once. Toxic doses and inconclusive results are not listed.
Test system: BDF1 mice, P388 leukemia ip, median survival T/C
Experiment: NCI In Vivo Anticancer Drug Screen. Data for tumor model P388 Leukemia (intraperitoneal) in B6D2F1 (BDF1) mice
Conditions: endpoint: median survival time, higher = longer survival
Summary of the method: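 Antitumour effect was judged in vivo: survival in drug-treated mice, normalised to that of vehicle-dosed controls, gives the reported T/C.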

[1] = dose: 100.0 mg/kg/injection, schedule: Q04DX003 (ip), vehicle: saline with Tween-80
[2] = dose: 200.0 mg/kg/injection, schedule: Q04DX003 (ip), vehicle: saline with Tween-80
[3] = dose: 50.0 mg/kg/injection, schedule: Q01DX009 (ip), vehicle: saline with Tween-80
[4] = dose: 100.0 mg/kg/injection, schedule: Q01DX009 (ip), vehicle: saline with Tween-80
[5] = dose: 200.0 mg/kg/injection, schedule: Q01DX009 (ip), vehicle: saline with Tween-80
[6] = dose: 25.0 mg/kg/injection, schedule: Q04DX003 (ip), vehicle: saline
[7] = dose: 50.0 mg/kg/injection, schedule: Q04DX003 (ip), vehicle: saline
[8] = dose: 100.0 mg/kg/injection, schedule: Q04DX003 (ip), vehicle: saline
[9] = dose: 12.5 mg/kg/injection, schedule: Q01DX009 (ip), vehicle: saline with Tween-80
[10] = dose: 25.0 mg/kg/injection, schedule: Q01DX009 (ip), vehicle: saline with Tween-80
[11] = dose: 25.0 mg/kg/injection, schedule: Q01DX009 (ip), vehicle: saline
[12] = dose: 50.0 mg/kg/injection, schedule: Q01DX009 (ip), vehicle: saline
[13] = dose: 100.0 mg/kg/injection, schedule: Q01DX009 (ip), vehicle: saline
[14] = dose: 200.0 mg/kg/injection, schedule: Q01DX009 (ip), vehicle: saline
[15] = dose: 400.0 mg/kg/injection, schedule: Q01DX009 (ip), vehicle: saline

CN(C)c1ccc(NC(=O)Nc2cccc(Cl)c2)cc1
T/C [1]: 95 % of control
T/C [2]: 90 % of control
T/C (dose: 400.0 mg/kg/injection, schedule: Q04DX003 (ip), vehicle: saline with Tween-80): 95 % of control

CC(=O)Nc1c(Cl)cc2c(c1Cl)Cc1cc(N=Cc3ccc4c(c3)OCO4)ccc1-2
T/C (dose: 25.0 mg/kg/injection, schedule: Q01DX009 (ip), vehicle: Klucel (hydroxypropylcellulose) (HPC)): 90 % of control
T/C (dose: 50.0 mg/kg/injection, schedule: Q01DX009 (ip), vehicle: Klucel (hydroxypropylcellulose) (HPC)): 90 % of control
T/C (dose: 100.0 mg/kg/injection, schedule: Q01DX009 (ip), vehicle: Klucel (hydroxypropylcellulose) (HPC)): 86 % of control

CCOC(=O)C1C(C)OC(=O)C(Br)C1C (stereo not given)
T/C [3]: 97 % of control
T/C [4]: 98 % of control
T/C [5]: 104 % of control

C1CSCCO1.[Cu+2].[O-][Cl+3]([O-])([O-])O
T/C (dose: 6.25 mg/kg/injection, schedule: Q04DX003 (ip), vehicle: saline with Tween-80): 97 % of control
T/C (dose: 12.5 mg/kg/injection, schedule: Q04DX003 (ip), vehicle: saline with Tween-80): 99 % of control
T/C (dose: 25.0 mg/kg/injection, schedule: Q04DX003 (ip), vehicle: saline with Tween-80): 108 % of control

C=Cn1ccnc1C.C=Cn1ccnc1C.CC(=O)CC(C)=O.CC(=O)CC(C)=O.[Co]
T/C (dose: 12.5 mg/kg/injection, schedule: Q04DX003 (ip), vehicle: saline): 106 % of control
T/C [6]: 106 % of control
T/C [7]: 117 % of control

c1ccc(-c2oc3cc4c(cc3c2-c2ccc(OCCN3CCCC3)cc2)CCC4)cc1
T/C [1]: 95 % of control

CCCCOP(=O)(N1CC1CC)N1CC1CC (stereo not given)
T/C [7]: 123 % of control
T/C (dose: 60.0 mg/kg/injection, schedule: Q04DX003 (ip), vehicle: saline): 122 % of control
T/C (dose: 85.0 mg/kg/injection, schedule: Q04DX003 (ip), vehicle: saline): 122 % of control
T/C [8]: 150 % of control
T/C (dose: 133.0 mg/kg/injection, schedule: Q04DX003 (ip), vehicle: saline with Tween-80): 109 % of control
T/C (dose: 133.0 mg/kg/injection, schedule: Q04DX003 (ip), vehicle: saline): 100 % of control
T/C [2]: 109 % of control
T/C (dose: 300.0 mg/kg/injection, schedule: Q04DX003 (ip), vehicle: saline): 176 % of control

CC(C)=CCC/C(C)=C/CN1C(=O)C=CC1=O
T/C (dose: 0.39 mg/kg/injection, schedule: Q01DX009 (ip), vehicle: water): 94 % of control
T/C (dose: 0.78 mg/kg/injection, schedule: Q01DX009 (ip), vehicle: water): 100 % of control
T/C (dose: 1.56 mg/kg/injection, schedule: Q01DX009 (ip), vehicle: water): 112 % of control
T/C (dose: 3.12 mg/kg/injection, schedule: Q01DX009 (ip), vehicle: water): 112 % of control
T/C (dose: 6.25 mg/kg/injection, schedule: Q01DX009 (ip), vehicle: water): 111 % of control
T/C (dose: 12.5 mg/kg/injection, schedule: Q01DX009 (ip), vehicle: water): 89 % of control

COc1ccc(CN2COc3c(cc(C)c4cccnc34)C2)cc1
T/C [9]: 90 % of control
T/C [10]: 94 % of control
T/C [3]: 92 % of control

O/N=C(/C(=N/O)c1ccccc1)c1ccccc1.O/N=C(/C(=N/O)c1ccccc1)c1ccccc1.[Cl][Rh][Cl]
T/C [11]: 119 % of control
T/C [12]: 117 % of control
T/C [13]: 94 % of control
T/C [14]: 103 % of control
T/C [15]: 95 % of control

Nc1n[nH]c(N)n1
T/C [13]: 113 % of control
T/C [14]: 113 % of control

CCN1CCCC(Nc2nc(Nc3cc(Cl)cc(Cl)c3)nc3ccc(Cl)cc23)C1 (stereo not given)
T/C (dose: 6.25 mg/kg/injection, schedule: Q01DX009 (ip), vehicle: saline with Tween-80): 122 % of control
T/C [9]: 109 % of control
T/C [10]: 109 % of control

CCOC(=O)N1CCN(CCCCCOc2ccccc2C2CCCCC2)CC1
T/C [3]: 111 % of control
T/C [4]: 120 % of control

O=C(O)C(O)C(=O)O
T/C [8]: 95 % of control

Nc1nc2n[nH]nc2c(=O)[nH]1
T/C (dose: 25.0 mg/kg/injection, schedule: Q01DX010 (ip), vehicle: alkali diluted with saline): 118 % of control
T/C (dose: 100.0 mg/kg/injection, schedule: Q01DX010 (ip), vehicle: alkali diluted with saline): 165 % of control
T/C (dose: 200.0 mg/kg/injection, schedule: Q01DX010 (ip), vehicle: alkali diluted with saline): 160 % of control and 163 % of control

OCCNCCNCC[OH2+].OCCNCCNCC[OH2+].[Cu+2].[O-][Cl+3]([O-])([O-])[O-]
T/C (dose: 12.5 mg/kg/injection, schedule: Q01DX009 (ip), vehicle: other): 99 % of control
T/C (dose: 25.0 mg/kg/injection, schedule: Q01DX009 (ip), vehicle: other): 115 % of control
T/C (dose: 50.0 mg/kg/injection, schedule: Q01DX009 (ip), vehicle: other): 109 % of control

CS(=O)(=O)Nc1ccc(C(=O)CCN2CCCCCC2)cc1
T/C [11]: 108 % of control and 110 % of control
T/C [12]: 110 % of control and 112 % of control and 113 % of control
T/C [13]: 117 % of control
T/C [14]: 117 % of control

O=CCSC(=S)NNc1ccccc1
T/C (dose: 75.0 mg/kg/injection, schedule: Q01DX001 (ip), vehicle: Klucel (hydroxypropylcellulose) (HPC)): 110 % of control
T/C (dose: 150.0 mg/kg/injection, schedule: Q01DX001 (ip), vehicle: Klucel (hydroxypropylcellulose) (HPC)): 105 % of control
T/C (dose: 300.0 mg/kg/injection, schedule: Q01DX001 (ip), vehicle: Klucel (hydroxypropylcellulose) (HPC)): 95 % of control

COc1ccc(OC)c(/C=C/C(=O)NCC(O)CO)c1 (stereo not given)
T/C [3]: 95 % of control
T/C [4]: 100 % of control

O=C(/C=C/c1ccc(OCc2ccccc2)cc1)c1ccc(Cl)cc1Cl
T/C [3]: 91 % of control
T/C [4]: 89 % of control
T/C [5]: 89 % of control

C=CCn1nnc(-c2ccccc2)n1
T/C [3]: 117 % of control
T/C [4]: 117 % of control
T/C [5]: 119 % of control

C#CC(C)(C)NC(=O)NC12CC3CC(CC(C3)C1)C2
T/C (dose: 200.0 mg/kg/injection, schedule: Q01DX001 (ip), vehicle: saline with Tween-80): 88 % of control
T/C (dose: 400.0 mg/kg/injection, schedule: Q01DX001 (ip), vehicle: saline with Tween-80): 95 % of control

COC(=O)C(C)C(=O)OC
T/C (dose: 100.0 mg/kg/injection, schedule: Q01DX001 (ip), vehicle: saline): 100 % of control
T/C [13]: 90 % of control
T/C (dose: 200.0 mg/kg/injection, schedule: Q01DX001 (ip), vehicle: saline): 100 % of control
T/C [14]: 100 % of control
T/C (dose: 400.0 mg/kg/injection, schedule: Q01DX001 (ip), vehicle: saline): 113 % of control
T/C [15]: 109 % of control

Cc1cccc(NC(=O)N(CCCl)N=O)c1
T/C (dose: 0.4 mg/kg/injection, schedule: Q01DX009 (ip), vehicle: saline): 157 % of control
T/C (dose: 38.0 micrograms/kg/injection, schedule: Q04DX003 (ip), vehicle: saline): 100 % of control
T/C (dose: 75.0 micrograms/kg/injection, schedule: Q04DX003 (ip), vehicle: saline): 109 % of control
T/C (dose: 150.0 micrograms/kg/injection, schedule: Q04DX003 (ip), vehicle: saline): 104 % of control
T/C (dose: 300.0 micrograms/kg/injection, schedule: Q04DX003 (ip), vehicle: saline): 109 % of control

Cc1cc(C)c2cc3cccc[n+]3cc2c1
T/C (dose: 4.0 mg/kg/injection, schedule: Q01DX010 (ip), vehicle: carboxymethylcellulose (CMC)): 115 % of control

O=C(O)CSC(CC(=O)O)C(F)(F)C(F)(F)C(F)(F)F (stereo not given)
T/C [11]: 90 % of control
T/C [6]: 109 % of control
T/C [12]: 100 % of control
T/C [7]: 109 % of control
T/C (dose: 75.0 mg/kg/injection, schedule: Q01DX009 (ip), vehicle: saline): 110 % of control
T/C [13]: 95 % of control and 115 % of control
T/C [8]: 109 % of control
T/C (dose: 150.0 mg/kg/injection, schedule: Q01DX009 (ip), vehicle: saline): 120 % of control
T/C [14]: 120 % of control
T/C (dose: 300.0 mg/kg/injection, schedule: Q01DX009 (ip), vehicle: saline): 110 % of control
T/C (dose: 400.0 mg/kg/injection, schedule: Q04DX003 (ip), vehicle: saline): 122 % of control

O=[N+]([O-])c1ccc(N2CCCCCC2)c2c1no[n+]2[O-]
T/C (dose: 15.0 mg/kg/injection, schedule: Q01DX009 (ip), vehicle: saline with Tween-80): 90 % of control
T/C (dose: 30.0 mg/kg/injection, schedule: Q01DX009 (ip), vehicle: saline with Tween-80): 95 % of control
T/C (dose: 60.0 mg/kg/injection, schedule: Q01DX009 (ip), vehicle: saline with Tween-80): 95 % of control
